Measurements published in the RepoRT retention time repository.

Test: HILIC, HILICON iHILIC-(P) Classic, HILIC, PEEK, 50 × 2.1 mm, 5 µm, 30 °C, 0.12 mL/min, estimated dead time 0.92 min; A: water + 20 mM ammonium carbonate; B: acetonitrile; gradient (min/%B) 0/80 1/80 21/20 21.5/20 26.5/20 27.5/80 35/80
Conditions: stereoisomer not certain

Structure (SMILES) | LC retention time
O=c1ccn(C2OC(COP(=O)(O)O)C(O)C2O)c(=O)[nH]1 (configuration not stated) [UMP] | 9.59 min
CC(O)C(=O)O (configuration not stated) [Lactic Acid] | 3.22 min
Nc1ccn(C2OC(CO)C(O)C2O)c(=O)n1 (configuration not stated) [Cytidine] | 6.28 min
O=C(O)C1(O)CC(O)C(O)C(O)C1 (configuration not stated) [Quinic Acid] | 6.75 min
NC(=O)C1=CN(C2OC(COP(=O)(O)OP(=O)(O)OCC3OC(n4cnc5c(N)ncnc54)C(O)C3O)C(O)C2O)C=CC1 (configuration not stated) [NADH] | 9.95 min
O=C(O)CC(O)C(=O)O (configuration not stated) [Malic Acid] | 13 min
NC(CCC(=O)NC(CSSCC(NC(=O)CCC(N)C(=O)O)C(=O)NCC(=O)O)C(=O)NCC(=O)O)C(=O)O (configuration not stated) [GSSG] | 15.6 min
Nc1ccn(C2OC(COP(=O)(O)O)C(O)C2O)c(=O)n1 (configuration not stated) [CMP] | 10.8 min
CSCCC(N)C(=O)O (configuration not stated) [Methionine] | 6.99 min
O=c1ccn(C2OC(COP(=O)(O)OP(=O)(O)OP(=O)(O)O)C(O)C2O)c(=O)[nH]1 (configuration not stated) [UTP] | 14.1 min
NC(=O)c1ccc[n+](C2OC(COP(=O)(O)OP(=O)(O)OCC3OC(n4cnc5c(N)ncnc54)C(O)C3O)C(O)C2O)c1 (configuration not stated) [NAD] | 9.43 min
CC(=O)NC1C(OP(=O)(O)OP(=O)(O)OCC2OC(n3ccc(=O)[nH]c3=O)C(O)C2O)OC(CO)C(O)C1O (configuration not stated) [UDP-GlcNAc] | 11.9 min
NCCCCC(N)C(=O)O (configuration not stated) [Lysine] | 18.4 min
NC(=O)c1ccc[n+](C2OC(COP(=O)([O-])O)C(O)C2O)c1 (configuration not stated) [NMN] | 9.99 min
O=P(O)(O)OCC(O)CO (configuration not stated) [Glycerol-3-phosphate] | 10.9 min
O=C(O)CCCCC1SCC2NC(=O)NC21 (configuration not stated) [Biotin] | 3.76 min
NC(CO)C(=O)O (configuration not stated) [Serine] | 9.56 min
NC(=O)CCC(N)C(=O)O (configuration not stated) [Glutamine] | 8.86 min
O=C1OC(C(O)CO)C(O)=C1O (configuration not stated) [Ascorbic Acid] | 9.51 min

Structure (SMILES) | LC retention time
O=C(O)C(CO)OP(=O)(O)O (configuration not stated) [Phosphoglyceric acid A] | 13.6 min
CC(=O)SCCNC(=O)CCNC(=O)C(O)C(C)(C)COP(=O)(O)OP(=O)(O)OCC1OC(n2cnc3c(N)ncnc32)C(O)C1OP(=O)(O)O (configuration not stated) [Acetyl-CoA] | 8.59 min
Nc1ncnc2nc[nH]c12 [Adenine] | 3.84 min
NC(=O)CC(N)C(=O)O (configuration not stated) [Asparagine] | 11.1 min
NCCCC(N)C(=O)O (configuration not stated) [Ornithine] | 17.7 min
C=C(OP(=O)(O)O)C(=O)O [PEP] | 13.6 min
CCC(C)C(N)C(=O)O (configuration not stated) [Isoleucine] | 6.75 min
O=C(O)C1CCCN1 (configuration not stated) [Proline] | 7.48 min
NC(Cc1ccc(O)cc1)C(=O)O (configuration not stated) [Tyrosine] | 8.15 min
NC(CSSCC(N)C(=O)O)C(=O)O (configuration not stated) [Cystine] | 11.8 min
Nc1ncnc2c1ncn2C1OC(COP(=O)(O)OP(=O)(O)OP(=O)(O)O)C(O)C1O (configuration not stated) [ATP] | 13.9 min
NC(=O)c1ccc[n+](C2OC(COP(=O)(O)OP(=O)(O)OCC3OC(n4cnc5c(N)ncnc54)C(OP(=O)(O)O)C3O)C(O)C2O)c1 (configuration not stated) [NADP] | 13.4 min
NC(CCC(=O)O)C(=O)O (configuration not stated) [Glutamic acid] | 10.2 min
Nc1nc2ncc(CNc3ccc(C(=O)NC(CCC(=O)O)C(=O)O)cc3)nc2c(=O)[nH]1 (configuration not stated) [Folic Acid] | 14.4 min
Nc1ncnc2c1ncn2C1OC(COP(=O)(O)O)C(O)C1O (configuration not stated) [AMP] | 8.62 min
O=C(O)c1cccnc1 [Nicotinic acid] | 2.1 min
Nc1nc2c(ncn2C2OC(CO)C(O)C2O)c(=O)[nH]1 (configuration not stated) [Guanosine] | 7.27 min
Nc1ncnc2c1ncn2C1OC(COP(=O)(O)OP(=O)(O)O)C(O)C1O (configuration not stated) [ADP] | 12.5 min
NC(CCC(=O)NC(CS)C(=O)NCC(=O)O)C(=O)O (configuration not stated) [GSH] | 8.95 min

Structure (SMILES) | LC retention time
CC(O)C(N)C(=O)O (configuration not stated) [Threonine] | 8.47 min
NC(Cc1ccccc1)C(=O)O (configuration not stated) [Phenylalanine] | 5.37 min
Cc1ncc(C[n+]2csc(CCO)c2C)c(N)n1 [Thiamine] | 12.7 min
Nc1nc2c(ncn2C2OC(COP(=O)(O)O)C(O)C2O)c(=O)[nH]1 (configuration not stated) [GMP] | 13.9 min
NC(Cc1c[nH]c2ccccc12)C(=O)O (configuration not stated) [Tryptophan] | 6.31 min
O=C(CO)COP(=O)(O)O [Triose phosphate] | 11.5 min
Nc1ncnc2c1ncn2C1OC(CO)C(O)C1O (configuration not stated) [Adenosine] | 3.76 min
O=C(O)CC(O)(CC(=O)O)C(=O)O [Citric acid] | 16.5 min
O=C(O)CC(C(=O)O)C(O)C(=O)O (configuration not stated) [Isocitric acid] | 15.8 min
O=c1ccn(C2OC(COP(=O)(O)OP(=O)(O)O)C(O)C2O)c(=O)[nH]1 (configuration not stated) [UDP] | 12.3 min
CC(C)C(N)C(=O)O (configuration not stated) [Valine] | 6.97 min
Nc1nc2c(ncn2C2OC(COP(=O)(O)OP(=O)(O)O)C(O)C2O)c(=O)[nH]1 (configuration not stated) [GDP] | 14.8 min
O=C(O)CCC(=O)O [Succinic Acid] | 12.1 min
Nc1nc2c(ncn2C2OC(COP(=O)(O)OP(=O)(O)OP(=O)(O)O)C(O)C2O)c(=O)[nH]1 (configuration not stated) [GTP] | 16.9 min
CC(=O)NC(CC(=O)O)C(=O)O (configuration not stated) [N-Acetylaspartic acid] | 9.49 min
Nc1ccn(C2OC(COP(=O)(O)OP(=O)(O)O)C(O)C2O)c(=O)n1 (configuration not stated) [CDP] | 13.2 min
CC(C)CC(N)C(=O)O (configuration not stated) [Leucine] | 5.63 min
NC(=O)C1=CN(C2OC(COP(=O)(O)OP(=O)(O)OCC3OC(n4cnc5c(N)ncnc54)C(OP(=O)(O)O)C3O)C(O)C2O)C=CC1 (configuration not stated) [NADPH] | 16.3 min
O=C(O)CC(=O)O [Malonic Acid] | 9.63 min
